Measured values taken from patent publication US11103158B2, “Pure non-invasive method for identification of organ diseases or impaired organ function by investigation of marker substances in exhaled air stimulated by inhaled marker substances” (FREIE UNIVERSITÄT BERLIN, priority 2015, dated 2021).
Where two headings read alike, the source gives them in different places.

Assays:
CYP 2C9 and CYP 2C19 = details: reported by Mizayawa et al.; cited from earlier work
[1] = PTR-MS of volatile organic compounds in exhaled breath of vegan persons, volunteers and liver patients, also grouped by LiMAx value
[2] = in vivo
[3] = tested on: mammary, liver, lung, and other cancers; details: literature reports (Mizayawa et al.; Gold 1997); cited from earlier work

concentration in exhaled breath (m/z 137) [2]	concentration in the expiratory air (m/z 137) [2]	Compound	further results
–	–	C=C(C)[C@H]1CC=C(C)CC1 [limonene]	metabolization by enzymes (CYP 2C9 and CYP 2C19): metabolized by enzymes of the Cytochrome P450 family; concentration in exhaled breath (m/z 137) ([1]; comparison of the three groups (vegan diet, normal diet, liver disease patients), taking error bars into account, FIG. 1A): almost identical; concentration in the expiratory air (m/z 137) ([1]; patients with LiMAx value below 176 compared to LiMAx 176 to 351 or above 351, FIG. 1B): significantly increased
almost identical	significantly increased	C=C1CCC2CC1C2(C)C (stereo not drawn) [β-pinene]	–
almost identical	significantly increased	CC1=CCC2CC1C2(C)C (stereo not drawn) [α-pinene]	–
almost identical	significantly increased	γ-pinene	–
–	–	C=C(C)[C@@H]1CC=C(CO)CC1 [perillyl alcohol]	chemopreventive activity / cancer prevention [3]: prevent mammary, liver, lung, and other cancers
